Experimental data taken from patent US20150148235A1, “HERBICIDE-RESISTANT SUNFLOWER PLANTS WITH MULTIPLE HERBICIDE RESISTANT ALLELES OF AHASL1 AND METHODS OF USE” (NIDERA S.A., priority 2013, published 2015).
Where two headings read alike, the source gives them in different places.

Tests used:
[1] = test system: sunflower hybrids and lines (A122T, A205V, A205V/A122T); test: Field trial North Dakota 2006, phytotoxicity ratings after imazamox or imazapyr, Example 3; assay type: in vivo, Helianthus annuus; settings: for Phytotoxicity Rating (% Crop Injury): 160 g ai/ha + 0.25% NIS
Description: • Spray volume: 10 gallons per acre (GPA) (or 100 liters/ha) for backpack sprayer or 20 GPA (or 200 liters/ha) for tractor mounted boom • Growth Stage at Herbicide Application: 2-4 leaves
Entry 15 (WT Maintainer line) was left unsprayed in all treatment blocks.
Phytotoxicity ratings were assessed at 7 and 21 days following herbicide application.
The data was subjected to an ANOVA analysis and the means from the 3 repetitions are presented in Table 7 (phytotoxicity at 7 days post-treatment) and Table 8 (phytotoxicity at 21 days post-treatment).

[2] = test system: AHAS enzyme, A122T Homozygous sunflower; test: AHAS enzyme activity assay, leaf extract; assay type: biochemical, Helianthus annuus; settings: A122T homozygous hybrid (Set 1); 100 μM
Description: (§1) Twelve greenhouse grown sunflower plants from each of the lines depicted in Table 21 were bulked and subjected to an AHAS enzyme activity assay via the method of Singh et al. (1988) Anal. Biochem. 171:173-179. Each activity assay was repeated twice. Due to the large number of samples, the experiment was split into two sets (Table 21).
(§2) Young, actively growing leaves, from four week old plantlets, were ground in a mortar and pestle with liquid N2 and extracted with a buffer composed of 100 mM Pyruvate, 200 mM KH2PO4, 20 mM MgCl2, 2 mM thiamine pyrophosphate and […]. Plant extracts were then spun through a 10 mL Zeba TM desalt spin column (Pierce #89893) as per the manufacturer's recommendation. The inhibition assay was performed as described by Singh et al. (1988) Anal. Biochem. 171:173-179. Assays were conducted in a 96-well format. Fifty μl of inhibitor was added to each well containing 50 μl of soluble protein extract to give final concentrations of 0.78, 1.56, 3.125, 6.25, 12.5, 25, 50 and 100 μM imazamox or 0.78, 1.56, 3.125, 6.25, 12.5, 25, 50 and 100 μM imazapyr. Zero herbicide controls were also included for each line. Reactions were processed as outlined by Singh et al. (1988) Anal. Biochem. 171:173-179. Absorbance was measured at 530 nm. AHAS activity, expressed as the mean of the absorbance values for each treatment, was presented as a percentage of the mean of the zero-herbicide controls.

[3] = test system: AHAS enzyme, A122T/A205V Heterozygous sunflower; test: AHAS enzyme activity assay, leaf extract; assay type: biochemical, Helianthus annuus; settings: A122T/A205V heterozygous hybrid (Set 1); 100 μM
Description: as §1, §2

[4] = test system: AHAS enzyme, A205V Homozygous sunflower; test: AHAS enzyme activity assay, leaf extract; assay type: biochemical, Helianthus annuus; settings: A205V homozygous hybrid (Set 1); 100 μM
Description: as §1, §2

[5] = test system: sunflower hybrids H1, H2, H3, H5, H6; settings: in vivo
[6] = test system: sunflower hybrids H1, H2, H3, H5, H6; test: Field trial Venado Tuerto 2006, imazapyr applied at V8 or R1 stage, Phytotoxicity Index, Example 4; settings: for Mean Phytotoxicity Index (scale 0-50): H5 (L3 × WT, 122/Wild type), 160 g ai/ha applied at R1

## CC(C)C1(C)N=C(c2ncccc2C(=O)O)NC1=O (stereo not drawn) [imazapyr]
[1]; 1-hybrid (WT × IMI restorer, A205 hetero), 7 DAT
  Phytotoxicity Rating (% Crop Injury): 16.7%
[1]; 1-hybrid (WT × IMI restorer, A205 hetero), 21 DAT
  Phytotoxicity Rating (% Crop Injury): 20.0%
[1]; 3-hybrid (WT × IMI restorer, A205 hetero), 7 DAT
  Phytotoxicity Rating (% Crop Injury): 35.0%
[1]; 3-hybrid (WT × IMI restorer, A205 hetero), 21 DAT
  Phytotoxicity Rating (% Crop Injury): 43.3%
[1]; 4-line (IMI Restorer, A205 homo), 7 DAT
  Phytotoxicity Rating (% Crop Injury): 11.7%
[1]; 4-line (IMI Restorer, A205 homo), 21 DAT
  Phytotoxicity Rating (% Crop Injury): 6.7%
[1]; 6-hybrid (IMI CMS × IMI restorer, A205 homo), 7 DAT
  Phytotoxicity Rating (% Crop Injury): 8.3%
[1]; 6-hybrid (IMI CMS × IMI restorer, A205 homo), 21 DAT
  Phytotoxicity Rating (% Crop Injury): 3.3%
[1]; 7-hybrid (WT-CMS × IMI restorer, A205 hetero), 7 DAT
  Phytotoxicity Rating (% Crop Injury): 21.7%
[1]; 7-hybrid (WT-CMS × IMI restorer, A205 hetero), 21 DAT
  Phytotoxicity Rating (% Crop Injury): 36.7%
[1]; 8-hybrid (WT × GM40 restorer, A122 hetero), 7 DAT
  Phytotoxicity Rating (% Crop Injury): 13.3%
[1]; 8-hybrid (WT × GM40 restorer, A122 hetero), 21 DAT
  Phytotoxicity Rating (% Crop Injury): 11.7%
[1]; 9-line (GM40 restorer, A122 homo), 7 DAT
  Phytotoxicity Rating (% Crop Injury): 8.3%
[1]; 9-line (GM40 restorer, A122 homo), 21 DAT
  Phytotoxicity Rating (% Crop Injury): 5.0%
[1]; 10-hybrid (IMI CMS × GM40 restorer, A205/A122 hetero/double), 7 DAT
  Phytotoxicity Rating (% Crop Injury): 3.3%
[1]; 10-hybrid (IMI CMS × GM40 restorer, A205/A122 hetero/double), 21 DAT
  Phytotoxicity Rating (% Crop Injury): 0.0%
[1]; 11-hybrid (GM40 CMS × IMI restorer, A205/A122 hetero/double), 7 DAT
  Phytotoxicity Rating (% Crop Injury): 3.3%
[1]; 11-hybrid (GM40 CMS × IMI restorer, A205/A122 hetero/double), 21 DAT
  Phytotoxicity Rating (% Crop Injury): 0.0%
[1]; 12-hybrid (IMI CMS × GM40 restorer, A205/A122 hetero/double), 7 DAT
  Phytotoxicity Rating (% Crop Injury): 5.0%
[1]; 12-hybrid (IMI CMS × GM40 restorer, A205/A122 hetero/double), 21 DAT
  Phytotoxicity Rating (% Crop Injury): 1.7%
[1]; 13-hybrid (GM40 CMS × GM40 restorer, A122 homo), 7 DAT
  Phytotoxicity Rating (% Crop Injury): 5.0%
[1]; 13-hybrid (GM40 CMS × GM40 restorer, A122 homo), 21 DAT
  Phytotoxicity Rating (% Crop Injury): 1.7%
[1]; 14-hybrid (GM40 CMS × GM40 restorer, A122 homo), 7 DAT
  Phytotoxicity Rating (% Crop Injury): 8.3%
[1]; 14-hybrid (GM40 CMS × GM40 restorer, A122 homo), 21 DAT
  Phytotoxicity Rating (% Crop Injury): 3.3%
[1]; 15-hybrid (WT × GM40 restorer, A122 hetero), 7 DAT
  Phytotoxicity Rating (% Crop Injury): 8.3%
[1]; 15-hybrid (WT × GM40 restorer, A122 hetero), 21 DAT
  Phytotoxicity Rating (% Crop Injury): 21.7%
[1]; 16-hybrid (WT × GM40 restorer, A122 hetero), 7 DAT
  Phytotoxicity Rating (% Crop Injury): 10.0%
[1]; 16-hybrid (WT × GM40 restorer, A122 hetero), 21 DAT
  Phytotoxicity Rating (% Crop Injury): 23.3%
[1]; heterozygous A205V entries, 160 g ai/ha, 21 DAT
  phytotoxicity: 20-43%
[2]
  AHAS activity: 64 % of untreated control
[3]
  AHAS activity: 60%
[4]
  AHAS activity: 42 % of untreated control
[5]
  Phytotoxicity Index (scale 0-50): greater than 35
[6]; 14 DAT
  Mean Phytotoxicity Index (scale 0-50): 11.7
[6]; 21 DAT
  Mean Phytotoxicity Index (scale 0-50): 23.3
[6]; hybrids with at least one A122T allele (A122T/A122T, A122T/A205V, A122/WT), 160 g ai/ha at R1, 14 DAT
  Phytotoxicity Index (scale 0-50): less than 11.7
